Laboratory results from patent publication US8623857B2, “N-phenyl imidazole carboxamide inhibitors of 3-phosphoinositide-dependent protein kinase-1” (Merck Sharp & Dohme Corp., priority 2010, dated 2014).

biological target: T1, recombinant human PDK1 (Homo sapiens, UniProt O15530); experiment: PDK1 IMAP fluorescence polarization assay (inhibition of peptide substrate phosphorylation); assay type: biochemical; details: Table 6; 10 nM PDK1 enzyme, 100 nM peptide substrate, 100 nM PIFtide, 2.5 uM ATP, 1.5 hours
T1 construct: containing amino acids 51-556 of the human PDK1 enzyme; made in house; host or cells: Sf9 insect cells
T1 sequence (O15530 51-556): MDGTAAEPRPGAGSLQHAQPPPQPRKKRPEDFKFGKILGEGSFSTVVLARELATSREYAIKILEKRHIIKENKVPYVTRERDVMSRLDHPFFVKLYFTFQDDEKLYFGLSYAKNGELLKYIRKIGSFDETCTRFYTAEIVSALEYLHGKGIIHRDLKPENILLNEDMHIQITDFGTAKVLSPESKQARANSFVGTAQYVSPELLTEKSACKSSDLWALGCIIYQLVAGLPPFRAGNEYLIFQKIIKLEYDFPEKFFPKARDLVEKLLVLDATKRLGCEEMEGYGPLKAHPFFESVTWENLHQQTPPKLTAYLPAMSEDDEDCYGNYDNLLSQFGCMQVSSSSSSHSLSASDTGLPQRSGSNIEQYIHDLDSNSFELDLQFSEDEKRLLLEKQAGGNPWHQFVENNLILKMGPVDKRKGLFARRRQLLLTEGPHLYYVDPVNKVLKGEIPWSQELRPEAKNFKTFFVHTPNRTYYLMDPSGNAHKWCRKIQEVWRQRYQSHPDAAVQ

SMILES | IC50 [nM]
NCC1CCN(c2c(F)cccc2NC(=O)c2nc(-c3ccnc(NC4CC4)c3)c[nH]2)CC1 [Compound 42, N-[2-[4-(aminomethyl)-1-piperidinyl]-3-fluorophenyl]-4-[2-(cyclopropylamino)-4-pyridinyl]-1H-imidazole-2-carboxamide] | 51 to 250
Cc1cc(-c2c[nH]c(C(=O)Nc3cccc(F)c3N3CCC4CCNC4C3)n2)ccn1 (stereo not shown) [Compound 43, N-[3-fluoro-2-(octahydro-6h-pyrrolo[2,3-c]pyridin-6-yl)phenyl]-4-(2-methyl-4-pyridinyl)-1H-imidazole-2-carboxamide] | 51 to 250
N#Cc1cccc(-c2c[nH]c(C(=O)Nc3cccc(F)c3N3CCC(CN)CC3)n2)n1 [Compound 44, N-[2-[4-(aminomethyl)-1-piperidinyl]-3-fluorophenyl]-4-(6-cyano-2-pyridinyl)-1H-imidazole-2-carboxamide] | 251 to 1000
CC(=O)c1ccc(-c2c[nH]c(C(=O)Nc3cccc(F)c3N3CCC(CN)CC3)n2)s1 [Compound 45, 4-(5-acetyl-2-thienyl)-N-[2-[4-(aminomethyl)-1-piperidinyl]-3-fluorophenyl]-1H-imidazole-2-carboxamide] | 1000 to 5000
Cc1cc(-c2c[nH]c(C(=O)Nc3cccc(F)c3N3CCC4(CCCNC4)CC3)n2)ccn1 [Compound 46, N-[2-(2,9-diazaspiro[5,5]undec-9-yl)-3-fluorophenyl]-4-(2-methyl-4-pyridinyl)-1H-imidazole-2-carboxamide] | 51 to 250
Cc1cc(-c2c[nH]c(C(=O)Nc3cccc(F)c3N3CCC(CN)CC3)n2)nc(N)n1 [Compound 47, N-[2-[4-(aminomethyl)-1-piperidinyl]-3-fluorophenyl]-4-(2-amino-6-methyl-4-pyrimidinyl)-1H-imidazole-2-carboxamide] | 1 to 50
NCC1CCN(c2c(F)cccc2NC(=O)c2nc(-c3cc(C(F)(F)F)n[nH]3)c[nH]2)CC1 [Compound 48, N-[2-[4-(aminomethyl)-1-piperidinyl]-3-fluorophenyl]-4-[3-(trifluoromethyl)-1H-pyrazol-5-yl]-1H-imidazole-2-carboxamide] | 251 to 1000
Cc1nc(N)cc(-c2c[nH]c(C(=O)Nc3cccc(F)c3N3CCC(CN)CC3)n2)n1 [Compound 49, N-[2-[4-(aminomethyl)-1-piperidinyl]-3-fluorophenyl]-4-(6-amino-2-methyl-4-pyrimidinyl)-1H-imidazole-2-carboxamide] | 51 to 250
Cc1cc(-c2c[nH]c(C(=O)Nc3cccc(F)c3N3CCC(CN(C)C)CC3)n2)ccn1 [Compound 50, N-[2-[4-[(dimethylamino)methyl]-1-piperidinyl]-3-fluorophenyl]-4-(2-methyl-4-pyridinyl)-1H-imidazole-2-carboxamide] | 251 to 1000
NCC1CCN(c2ccc(-c3cn[nH]c3)cc2NC(=O)c2nc(-c3cn[nH]c3)c[nH]2)CC1 [Compound 51, N-[2-[4-(aminomethyl)-1-piperidinyl]-5-(1H-pyrazol-4-yl)phenyl]-4-(1H-pyrazol-4-yl)-1H-imidazole-2-carboxamide] | 251 to 1000
CCC1(CN)CCN(c2c(F)cccc2NC(=O)c2nc(-c3ccnc(C)c3)c[nH]2)CC1 [Compound 52, N-[2-[4-(aminomethyl)-4-ethyl-1-piperidinyl]-3-fluorophenyl]-4-(2-methyl-4-pyridinyl)-1H-imidazole-2-carboxamide] | 51 to 250
NCC1CCN(c2c(F)cccc2NC(=O)c2nc(-c3cn[nH]c3)c[nH]2)CC1 [Compound 53, N-[2-[4-(aminomethyl)-1-piperidinyl]-3-fluorophenyl]-4-(1H-pyrazol-4-yl)-1H-imidazole-2-carboxamide] | 1 to 50
Cc1cc(-c2c[nH]c(C(=O)Nc3cccc(F)c3N3CC4CCC(C3)N4)n2)ccn1 [Compound 54, N-[2-(3,8-diazabicyclo[3.2.1]oct-3-yl)-3-fluorophenyl]-4-(2-methyl-4-pyridinyl)-1H-imidazole-2-carboxamide] | 1000 to 5000
